The values below are quoted from earlier work in patent US20250325691A1, “HER2-GST-SN-38 COMPLEX, AND PHARMACEUTICAL COMPOSITION COMPRISING SAME FOR PREVENTING OR TREATING PROLIFERATIVE DISEASES” (priority 2022, published 2025).

The series relates to various cancer cells. Particulars: various cancer cells in vitro; cited from earlier work.

The structures appear in SMILES notation.

As to `CCc1c2c(nc3ccc(O)cc13)-c1cc3c(c(=O)n1C2)COC(=O)[C@]3(O)CC` [SN-38, 7-ethyl-10-hydroxycamptothecin], the “cytotoxic activity, times more potent than irinotecan” value is on record as “up to 1,000 times”.
